Data from US8394776B2, “Use of ursolic acid saponin,oleanolic acid saponin in preparation of increasing leucocytes and/or platelet medicine” (Chengdu Di'Ao Jiuhong Pharmaceutical Factor, priority 2007, dated 2013).

Experiments:
[1] = test system: bone marrow mononuclear cell (BMMNC); test: Monocytic proliferation in bone marrow of mice cultured in vitro (SRB method); type: cell-based, KunMing mice; details: 1 μg/ml; cultured 5 days; versus blank control
Description: 15-20 KunMing mice (purchased from Laboratory Animal Center of Zhengzhou University, Henan) of either sex were killed by cervical vertebral dislocation. Bilateral thighbones were isolated and caput femoris was cut off. The marrow was washed repeatedly with serum-free RPMI1640 (Gibco Corp.), the wash solution containing marrow cells was collected, sucked and blew repeatedly with a pipette to make the cells disperse. After standing for a moment, the supernatant was sucked up and centrifugated at 100 g for 3 min to collect the cell pellet. The cells were resuspended in a culture media and brought to a volume of 5 ml. The cell suspension was added to the upper layer of a centrifugal tube containing 5 ml of a lymphocyte separation medium of mice and centrifugated at 400 g for 30 min. The milk-white bone marrow mononuclear cell (BMMNC) layer in the middle of the interface was collected and washed with serum-free medium RPMI1640 for three times to obtain a BMMNC suspension, which was inoculated into a 96-well plate at forty thousand per well after counting. Positive drugs rhG-CSF (recombinant granulocyte colony-stimulating factor, manufactured by QI LU Pharmaceutical Co., LTD., Shandong) or test samples of different concentrations were added, and meanwhile a blank control group without drug was established. They were cultured in a 5% CO2 incubator at 37 for 5 days. Cell proliferation was measured by a conventional SRB (Sigma) method in which OD at 490 nm was measured after being dyed with SRB. The growth rates of cell proliferation after drug treatment were calculated (Growth rate of cell proliferation=experimental group-blank control group/blank control group*100%).

WBC = test: 60Co-γ-induced leukopenia in mice: WBC; type: in vivo, Kunming mice
Description: In order to illustrate the present invention in detail, with a model induced by ^60Co-γ rays, the effects of G-1 and G-22 on leukocytes of chemotherapy-induced-leukopenia mice were compared. The specific operation and the results are as follows.
Healthy Kunming mice, of which half were male and the other half were female, were divided into 6 groups randomly, with 17-18 in each group. Blood was taken from caudal vein to determine the normal hemogram (leucocyte, erythrocyte, platelet and hemoglobin), and adjustments were made according to body weights and hemogram results. The normal control group and model group were given isometric physiological saline once a day for 7 days, and then the post-radiation hemogram was determined. Except the normal control group, other groups were each subjected to a whole body exposure to ^60Co-γ rays at a total dose of 3.0 Gy to prepare the models of leukopenia in mice, followed by further administration for 14 days. The G-CSF group was adminitrated through subcutaneous injection for 5 days from the irradiation day on and the hemogram was determined by taking blood respectively on day 3, day 7 and day 14 after irradiation.

platelets (PLT) = test: Cyclophosphamide-induced leukopenia in mice: platelets (PLT); type: in vivo, Kunming mice; details: Experimental Example 3, 0.8 mg/kg; for difference in increasing platelets compared with G-22 (in words): day 5 after modeling
Description: (§1) Further, in vivo experiments were carried out on the compounds involved in the present invention using animal models of cyclophosphamide-induced leukopenia in mice. Experimental methods are briefed as follows: Healthy Kunming mice, of which half were male and the other half were female, were divided into groups, each group incuding 18 mice, and those mice weighing 18-22 g were selected and divided into groups randomly according to their body weights. Each group was given a different drug, wherein the negative control group and model control group were given physiological saline of the same volume, and the positive control group was treated with granulocyte colony-stimulating factors 40 μg/kg through subcutaneous injection (injection volume: 0.1 ml/10 g). After administration for 3 days, except the negative control group, other treatment groups were treated with 100 mg/kg cyclophosphamide (CY) through lumbar injection once a day for three days to cause a decrease of leukocytes in mice. A drop of blood (20 μl) was taken from posterior orbital venous plexus to detect the hemogram to observe the situation of leukocytes and platelets on day 1, day 3 and/or day 5 after the final lumbar injection of cyclophosphamide (i.e day 1, day 3 and/or day 5 after modeling) (Note: Each treatment group was administrated incessantly). The mice were killed on day 5 after the final lumbar injection of cyclophosphamide (i.e day 5 after modeling), and the leukocytes (WBC) and platelets (PLT) of the hemogram index were counted.
(§2) The purpose of this experiment is to study the effect of G-1, G-3, G-11 and G-12 of ursolic acid saponin and oleanolic acid saponin in increasing platelets, and to observe whether G-11 and G-12 of oleanolic acid saponin have an effect in increasing leukocytes.

leukocytes (WBC) = test: Cyclophosphamide-induced leukopenia in mice: leukocytes (WBC); type: in vivo, Kunming mice; details: 0.8 mg/kg; for leukocytes, Day 1 after modeling / leukocytes, Day 5 after modeling / effect in increasing leukocytes (in words): Experimental Example 3
Description: as §1
This experiment mainly studies the effect of G-1, G-6 and G-8 of ursolic acid saponin in increasing leukocytes, and compares the therapeutic effects of aglycon of ursolic acid and oleanolic acid and of the compound G-22 which has been disclosed by a patent.
as §2

[2] = 0.80 mg/kg i.g., 3.0 Gy whole body

CC1(C)CC[C@]2(C(=O)O)CC[C@]3(C)C(=CC[C@@H]4[C@@]5(C)CC[C@H](O[C@@H]6OC[C@@H](O)[C@@H](O)[C@@H]6O)C(C)(C)[C@@H]5CC[C@]43C)[C@@H]2C1 [Sample G-16, 3-O-(α-L-arabopyranosyl) oleanolic acid]
Growth Rate of Proliferation %, 1 μg/ml [1]: 21.6%

CC1(C)CC[C@]2(C(=O)O)CC[C@]3(C)C(=CC[C@@H]4[C@@]5(C)CC[C@H](O[C@@H]6O[C@H](C(=O)O)[C@@H](O)[C@H](O)[C@H]6O)C(C)(C)[C@@H]5CC[C@]43C)[C@@H]2C1 [Sample G-19, 3-O-(β-D-glucuronopyranosyl) oleanolic acid]
Growth Rate of Proliferation %, 1 μg/ml [1]: 20.9%

CC1(C)CC[C@]2(C(=O)O)CC[C@]3(C)C(=CC[C@@H]4[C@@]5(C)CC[C@H](O[C@@H]6OC[C@@H](O)[C@H](O)[C@H]6O)C(C)(C)[C@@H]5CC[C@]43C)[C@@H]2C1 [Sample G-15, 3-O-(β-D-xylopyranosyl) oleanolic acid]
Growth Rate of Proliferation %, 1 μg/ml [1]: 20.6%

CC1CCC2(C(=O)OC3OC(CO)C(OC4OC(CO)C(O)C(O)C4O)C(O)C3O)CCC3(C)C(=CCC4C5(C)CCC(OC6OCC(O)C(O)C6O)C(C)(C)C5CCC43C)C2C1C [Sample G-4, 3-O-(α-L-arabopyranosyl) ursolic acid-28-O-(β-cellobiosyl) ester]
Growth Rate of Proliferation %, 1 μg/ml [1]: 18.0%

CC1CCC2(C(=O)OC3OC(C)C(O)C(O)C3O)CCC3(C)C(=CCC4C5(C)CCC(OC6OC(C)C(O)C(O)C6O)C(C)(C)C5CCC43C)C2C1C [Sample G-2, 3-O-(α-L-rhamnopyranosyl) ursolic acid-28-O-(α-L-rhamnopyranosyl) ester]
Growth Rate of Proliferation %, 1 μg/ml [1]: 19.9%

C[C@@H]1CC[C@]2(C(=O)O[C@@H]3O[C@H](CO)[C@@H](O)[C@H](O)[C@H]3O)CC[C@]3(C)C(=CC[C@@H]4[C@@]5(C)CC[C@H](O[C@@H]6OC[C@H](O)[C@H](O)[C@H]6O)C(C)(C)[C@@H]5CC[C@]43C)[C@@H]2[C@]1(C)O [Sample G-22, 3-O-(α-L-arabopyranosyl)-19-hydroxy-ursolic acid-28-O-(β-D-glucopyranosyl) ester, reference compound]
Growth Rate of Proliferation %, 1 μg/ml [1]: 15.2% | effect on leucocyte count of leukopenia mice (in words) (WBC; 0.80 mg/kg gastric perfusion, versus model group, day 7 and day 14 after irradiation): no evident effect | WBC, 1 week after administration (WBC; 0.80 mg/kg i.g. once a day for 7 days, before irradiation): 9.50 ± 3.17 109/L | WBC, Day 3 after irradiation (WBC; [2]): 2.21 ± 0.92 109/L | WBC, Day 7 after irradiation (WBC; [2]): 4.08 ± 1.50 109/L | WBC, Day 14 after irradiation (WBC; [2]): 5.44 ± 1.13 109/L | WBC, Normal (WBC; normal hemogram before administration (baseline), 0.80 mg/kg i.g. group): 8.56 ± 2.43 109/L | platelets, Day 1 after modelng (platelets (PLT)): 491.36 ± 126.28 | platelets, Day 5 after modeling (platelets (PLT)): 210.00 ± 119.38 | leukocytes (WBC), Day 3 after modeling (leukocytes (WBC); Experimental Example 2): 5.17 ± 1.77 | leukocytes (WBC), Day 5 after modeling (leukocytes (WBC); Experimental Example 2): 11.87 ± 9.53 | leukocytes (WBC), Day1 after modeling (leukocytes (WBC); Experimental Example 2, CY 100 mg/kg x 3 days): 1.08 ± 0.34Δ | leukocytes, Day 1 after modeling (leukocytes (WBC)): 0.92 ± 0.28 | leukocytes, Day 5 after modeling (leukocytes (WBC)): 8.81 ± 6.44

3-O-(β-D-glucopyranosyl) oleanolic acid [Sample G-13]
Growth Rate of Proliferation %, 1 μg/ml [1]: 21.6%

CC1CCC2(C(=O)O)CCC3(C)C(=CCC4C5(C)CCC(OC6OC(CO)C(O)C(O)C6O)C(C)(C)C5CCC43C)C2C1C [Sample G-7, 3-O-(β-D-glucopyranosyl) ursolic acid]
Growth Rate of Proliferation %, 1 μg/ml [1]: 23.7%

CC1CCC2(C(=O)O)CCC3(C)C(=CCC4C5(C)CCC(OC6OC(CO)C(O)C(O)C6O)C(C)(C)C5CCC43C)C2C1C [Sample G-10, 3-O-(β-D-galactopyranosyl) ursolic acid]
Growth Rate of Proliferation %, 1 μg/ml [1]: 24.2%

CC1(C)CC[C@]2(C(=O)O[C@@H]3O[C@H](CO)[C@@H](O)[C@H](O)[C@H]3O)CC[C@]3(C)C(=CC[C@@H]4[C@@]5(C)CC[C@H](O[C@@H]6O[C@H](CO)[C@@H](O)[C@H](O)[C@H]6O)C(C)(C)[C@@H]5CC[C@]43C)[C@@H]2C1 [Sample G-12, 3-O-(β-D-glucopyranosyl) oleanolic acid-28-O-(β-D-glucopyranosyl) ester]
Growth Rate of Proliferation %, 1 μg/ml [1]: 25.4% | effect in increasing platelets (in words) (platelets (PLT)): effect in increasing platelets is obvious on day 1 and day 5 | platelets, Day 1 after modelng (platelets (PLT)): 456.88 ± 77.20 | platelets, Day 5 after modeling (platelets (PLT)): 390.86 ± 203.71**★★ | difference in increasing platelets compared with G-22 (in words) (platelets (PLT)): significant difference on day 5 compared with G-22 | effect in increasing leukocytes (in words) (leukocytes (WBC)): obvious effect in increasing leukocytes at day 1 after modeling | leukocytes, Day 1 after modeling (leukocytes (WBC)): 1.01 ± 0.55 | leukocytes, Day 5 after modeling (leukocytes (WBC)): 5.48 ± 4.39

CC1(C)CC[C@]2(C(=O)O[C@@H]3O[C@H](CO)[C@@H](O)[C@H](O)[C@H]3O)CC[C@]3(C)C(=CC[C@@H]4[C@@]5(C)CC[C@H](O)C(C)(C)[C@@H]5CC[C@]43C)[C@@H]2C1 [Sample G-17, oleanolic acid-28-O-(β-D-glucopyranosyl) ester]
Growth Rate of Proliferation %, 1 μg/ml [1]: 20.6%

ursolic acid-28-O-(α-L-arabopyranosyl) ester [Sample G-5]
Growth Rate of Proliferation %, 1 μg/ml [1]: 20.1%

CC1(C)CCC2(C(=O)O)CCC3(C)C(=CCC4C5(C)CCC(OC6OC(CO)C(O)C(O)C6O)C(C)(C)C5CCC43C)C2C1 [Sample G-14, 3-O-(β-D-galactopyranosyl) oleanolic acid]
Growth Rate of Proliferation %, 1 μg/ml [1]: 19.9%

C[C@H]1[C@H](C)CC[C@]2(C(=O)O)CC[C@]3(C)C(=CC[C@@H]4[C@@]5(C)CC[C@H](O[C@@H]6O[C@@H](C)[C@H](O)[C@@H](O)[C@H]6O)C(C)(C)[C@@H]5CC[C@]43C)[C@H]12 [Sample G-9, 3-O-(α-L-rhamnopyranosyl) ursolic acid]
Growth Rate of Proliferation %, 1 μg/ml [1]: 23.4%

CC1(C)CCC2(C(=O)OC3OC(COC4OC(CO)C(O)C(O)C4O)C(O)C(O)C3O)CCC3(C)C(=CCC4C5(C)CCC(O)C(C)(C)C5CCC43C)C2C1 (stereo not drawn) [Sample G-18, oleanolic acid-28-O-(β-gentiobiosyl) ester]
Growth Rate of Proliferation %, 1 μg/ml [1]: 19.0%

CC1(C)CC[C@]2(C(=O)O[C@@H]3OC[C@H](O)[C@H](O)[C@H]3O)CC[C@]3(C)C(=CC[C@@H]4[C@@]5(C)CC[C@H](O[C@@H]6OC[C@H](O)[C@H](O)[C@H]6O)C(C)(C)[C@@H]5CC[C@]43C)[C@@H]2C1 [Sample G-11, 3-O-(α-L-arabopyranosyl) oleanolic acid-28-O-(α-L-arabopyranosyl) ester]
Growth Rate of Proliferation %, 1 μg/ml [1]: 26.8% | effect in increasing platelets (in words) (platelets (PLT)): effect in increasing platelets is obvious on day 1 and day 5 | platelets, Day 1 after modelng (platelets (PLT)): 465.00 ± 99.28 | platelets, Day 5 after modeling (platelets (PLT)): 385.73 ± 198.30**★ | difference in increasing platelets compared with G-22 (in words) (platelets (PLT)): significant difference on day 5 compared with G-22 | effect in increasing leukocytes (in words) (leukocytes (WBC)): obvious effect in increasing leukocytes at day 1 after modeling | leukocytes, Day 1 after modeling (leukocytes (WBC)): 0.94 ± 0.77 | leukocytes, Day 5 after modeling (leukocytes (WBC)): 7.55 ± 4.28
